Data reported in patent US9439432B2, “Phenylisoxazoline-based compound having herbicidal activity and use thereof” (MOGHU RESEARCH CENTER LTD, priority 2011, dated 2016).

Legend:
Assay type in all cases: in vivo
[1] = system: Corn; assay: Pre-emergence treatment, phytotoxicity to corn; details: 500 g/ha, 4 weeks after spraying, scale 0 to 10 (0: no effects, 10: complete death)
Experimental: (§1) A rectangular plastic pot having a surface area of 300 cm^2 was filled with sandy loam soil and mixed bed soil which were mixed at a ratio of 1:1, and then, barnyardrass (Echinochloa crusgalli), large crabgrass (Digitaria sanguinalis), blackgrass (Alopecurus myosuroides), and annual bluegrass (Poa annua), which are grass weeds, were seeded thereto. In a pot that was prepared as described above, seeds of corn, soybean, cotton, wheat, and rice were seeded. The pots were irrigated, and one day after, chemicals were sprayed thereto. The spraying was performed by using a track sprayer (R&D Sprayer, USA) equipped with a Teejet 8002 (Spraying Systems Co., USA) nozzle, and a spraying amount was adjusted at 300 L/ha. A spraying solution was prepared by dissolving test materials or references in acetone and adding the same amount of 0.2%(v/v) tween 20 aqueous solution thereto. Application rates were 500, 250, 125, and 62.5 g/ha. The pots were placed in a greenhouse in which during day, the temperature was maintained at a temperature of 25 to 30° C., and during night, the temperature was maintained at a temperature of 15 to 25° C., and the pots were periodically irrigated. Four weeks after the spraying the test materials or References, effects and phytotoxicity of the respective weeds and crops were evaluated in a scale of 0 to 10 (0: no effects, 10: complete death), and results thereof are shown in Table 4 below.

[2] = system: Soybean; assay: Pre-emergence treatment, phytotoxicity to soybean; details: 500 g/ha, 4 weeks after spraying, scale 0 to 10 (0: no effects, 10: complete death)
Experimental: as §1

[3] = system: Cotton; assay: Pre-emergence treatment, phytotoxicity to cotton; details: 500 g/ha, 4 weeks after spraying, scale 0 to 10 (0: no effects, 10: complete death)
Experimental: as §1

[4] = system: Wheat; assay: Pre-emergence treatment, phytotoxicity to wheat; details: 500 g/ha, 4 weeks after spraying, scale 0 to 10 (0: no effects, 10: complete death)
Experimental: as §1

[5] = system: Rice; assay: Pre-emergence treatment, phytotoxicity to rice; details: 500 g/ha, 4 weeks after spraying, scale 0 to 10 (0: no effects, 10: complete death)
Experimental: as §1

[6] = system: Echinochloa crusgalli; assay: Pre-emergence treatment, herbicidal efficacy on barnyardgrass; details: 4 weeks after spraying
Experimental: as §1

[7] = system: Digitaria sanguinalis; assay: Pre-emergence treatment, herbicidal efficacy on large crabgrass; details: 4 weeks after spraying, scale 0 to 10
Experimental: as §1

[8] = system: Poa annua; assay: Pre-emergence treatment, herbicidal efficacy on annual bluegrass; details: 4 weeks after spraying, scale 0 to 10
Experimental: as §1

[9] = system: Alopecurus myosuroides; assay: Pre-emergence treatment, herbicidal efficacy on blackgrass; details: 4 weeks after spraying, scale 0 to 10
Experimental: as §1

[10] = system: Corn; assay: Post-emergence treatment, phytotoxicity to corn; details: post-emergence (about 3 leaf stage), 1,000 g/ha, 4 weeks after spraying, scale 0 to 10 (0: no effects, 10: complete death)
Experimental: as §1
(§2) Pots containing crops and weeds were prepared in the same manner as in Example 7, and then, in the second week in which crops and weeds entered into about 3 leaf stage, the test materials and the references were sprayed thereto in the same manner as described above. The rates were 1,000, 500, 250, and 125 g/ha. Four weeks after the spraying of the test materials or the references, herbicidal efficacy and phytotoxicity to the respective weeds and crops were evaluated in a scale of 0 to 10 (0: no effects, 10: complete death).

[11] = system: Soybean; assay: Post-emergence treatment, phytotoxicity to soybean; details: post-emergence (about 3 leaf stage), 1,000 g/ha, 4 weeks after spraying, scale 0 to 10 (0: no effects, 10: complete death)
Experimental: as §1, §2

[12] = system: Cotton; assay: Post-emergence treatment, phytotoxicity to cotton; details: post-emergence (about 3 leaf stage), 1,000 g/ha, 4 weeks after spraying, scale 0 to 10 (0: no effects, 10: complete death)
Experimental: as §1, §2

[13] = system: Wheat; assay: Post-emergence treatment, phytotoxicity to wheat; details: post-emergence (about 3 leaf stage), 1,000 g/ha, 4 weeks after spraying, scale 0 to 10 (0: no effects, 10: complete death)
Experimental: as §1, §2

[14] = system: Rice; assay: Post-emergence treatment, phytotoxicity to rice; details: post-emergence (about 3 leaf stage), 1,000 g/ha, 4 weeks after spraying, scale 0 to 10 (0: no effects, 10: complete death)
Experimental: as §1, §2

[15] = system: Echinochloa crusgalli; assay: Post-emergence treatment, herbicidal efficacy on barnyardgrass; details: 4 weeks after spraying, scale 0 to 10
Experimental: as §1, §2

[16] = system: Digitaria sanguinalis; assay: Post-emergence treatment, herbicidal efficacy on large crabgrass; details: 4 weeks after spraying, scale 0 to 10
Experimental: as §1, §2

[17] = system: Poa annua; assay: Post-emergence treatment, herbicidal efficacy on annual bluegrass; details: 4 weeks after spraying, scale 0 to 10
Experimental: as §1, §2

[18] = system: Alopecurus myosuroides; assay: Post-emergence treatment, herbicidal efficacy on blackgrass; details: 4 weeks after spraying, scale 0 to 10
Experimental: as §1, §2

[19] = 500 g/ha, scale 0 to 10 (0: no effects, 10: complete death)

## CC1(COCc2c(F)cccc2Cl)CC(c2ccccc2Cl)=NO1 (stereo not drawn) [Reference B]
[1]
  Phytotoxicity, Corn: 0
[2]
  Phytotoxicity, Soybean: 0
[3]
  Phytotoxicity, Cotton: 0
[4]
  Phytotoxicity, Wheat: 0
[5]
  Phytotoxicity, Rice: 0
[6]; 62.5 g/ha, scale 0 to 10
  Herbicidal efficacy, Echinochloa crusgalli: 2
[6]; 125 g/ha, scale 0 to 10
  Herbicidal efficacy, Echinochloa crusgalli: 5
[6]; 250 g/ha, scale 0 to 10
  Herbicidal efficacy, Echinochloa crusgalli: 7
[6]; [19]
  Herbicidal efficacy, Echinochloa crusgalli: 10
[7]; 62.5 g/ha
  Herbicidal efficacy, Digitaria sanguinalis: 0
[7]; 125 g/ha
  Herbicidal efficacy, Digitaria sanguinalis: 4
[7]; 250 g/ha
  Herbicidal efficacy, Digitaria sanguinalis: 8
[7]; 500 g/ha
  Herbicidal efficacy, Digitaria sanguinalis: 9
[8]; 62.5 g/ha
  Herbicidal efficacy, Poa annua: 2
[8]; 125 g/ha
  Herbicidal efficacy, Poa annua: 4
[8]; 250 g/ha
  Herbicidal efficacy, Poa annua: 8
[8]; 500 g/ha
  Herbicidal efficacy, Poa annua: 10
[9]; 62.5 g/ha
  Herbicidal efficacy, Alopecurus myosuroides: 0
[9]; 125 g/ha
  Herbicidal efficacy, Alopecurus myosuroides: 0
[9]; 250 g/ha
  Herbicidal efficacy, Alopecurus myosuroides: 3
[9]; 500 g/ha
  Herbicidal efficacy, Alopecurus myosuroides: 10
[10]
  Phytotoxicity, Corn: 0
[11]
  Phytotoxicity, Soybean: 2
[12]
  Phytotoxicity, Cotton: 0
[13]
  Phytotoxicity, Wheat: 0
[14]
  Phytotoxicity, Rice: 0
[15]; post-emergence, 125 g/ha
  Herbicidal efficacy, Echinochloa crusgalli: 0
[15]; post-emergence, 250 g/ha
  Herbicidal efficacy, Echinochloa crusgalli: 0
[15]; post-emergence, 500 g/ha
  Herbicidal efficacy, Echinochloa crusgalli: 1
[15]; post-emergence, 1,000 g/ha
  Herbicidal efficacy, Echinochloa crusgalli: 7
[16]; post-emergence, 125 g/ha
  Herbicidal efficacy, Digitaria sanguinalis: 0
[16]; post-emergence, 250 g/ha
  Herbicidal efficacy, Digitaria sanguinalis: 5
[16]; post-emergence, 500 g/ha
  Herbicidal efficacy, Digitaria sanguinalis: 6
[16]; post-emergence, 1,000 g/ha
  Herbicidal efficacy, Digitaria sanguinalis: 8
[17]; post-emergence, 125 g/ha
  Herbicidal efficacy, Poa annua: 0
[17]; post-emergence, 250 g/ha
  Herbicidal efficacy, Poa annua: 1
[17]; post-emergence, 500 g/ha
  Herbicidal efficacy, Poa annua: 4
[17]; post-emergence, 1,000 g/ha
  Herbicidal efficacy, Poa annua: 6
[18]; post-emergence, 125 g/ha
  Herbicidal efficacy, Alopecurus myosuroides: 0
[18]; post-emergence, 250 g/ha
  Herbicidal efficacy, Alopecurus myosuroides: 0
[18]; post-emergence, 500 g/ha
  Herbicidal efficacy, Alopecurus myosuroides: 0
[18]; post-emergence, 1,000 g/ha
  Herbicidal efficacy, Alopecurus myosuroides: 3

## Cc1ccccc1C1=NOC(C)(COCc2ccccc2)C1 (stereo not drawn) [Reference C]
[1]
  Phytotoxicity, Corn: 1
[2]
  Phytotoxicity, Soybean: 1
[3]
  Phytotoxicity, Cotton: 1
[4]
  Phytotoxicity, Wheat: 0
[5]
  Phytotoxicity, Rice: 0
[6]; 62.5 g/ha, scale 0 to 10
  Herbicidal efficacy, Echinochloa crusgalli: 2
[6]; 125 g/ha, scale 0 to 10
  Herbicidal efficacy, Echinochloa crusgalli: 5
[6]; 250 g/ha, scale 0 to 10
  Herbicidal efficacy, Echinochloa crusgalli: 8
[6]; [19]
  Herbicidal efficacy, Echinochloa crusgalli: 10
[7]; 62.5 g/ha
  Herbicidal efficacy, Digitaria sanguinalis: 0
[7]; 125 g/ha
  Herbicidal efficacy, Digitaria sanguinalis: 6
[7]; 250 g/ha
  Herbicidal efficacy, Digitaria sanguinalis: 9
[7]; 500 g/ha
  Herbicidal efficacy, Digitaria sanguinalis: 10
[8]; 62.5 g/ha
  Herbicidal efficacy, Poa annua: 2
[8]; 125 g/ha
  Herbicidal efficacy, Poa annua: 5
[8]; 250 g/ha
  Herbicidal efficacy, Poa annua: 9
[8]; 500 g/ha
  Herbicidal efficacy, Poa annua: 9
[9]; 62.5 g/ha
  Herbicidal efficacy, Alopecurus myosuroides: 0
[9]; 125 g/ha
  Herbicidal efficacy, Alopecurus myosuroides: 2
[9]; 250 g/ha
  Herbicidal efficacy, Alopecurus myosuroides: 4
[9]; 500 g/ha
  Herbicidal efficacy, Alopecurus myosuroides: 6
[10]
  Phytotoxicity, Corn: 2
[11]
  Phytotoxicity, Soybean: 0
[12]
  Phytotoxicity, Cotton: 0
[13]
  Phytotoxicity, Wheat: 0
[14]
  Phytotoxicity, Rice: 0
[15]; post-emergence, 125 g/ha
  Herbicidal efficacy, Echinochloa crusgalli: 1
[15]; post-emergence, 250 g/ha
  Herbicidal efficacy, Echinochloa crusgalli: 3
[15]; post-emergence, 500 g/ha
  Herbicidal efficacy, Echinochloa crusgalli: 4
[15]; post-emergence, 1,000 g/ha
  Herbicidal efficacy, Echinochloa crusgalli: 7
[16]; post-emergence, 125 g/ha
  Herbicidal efficacy, Digitaria sanguinalis: 1
[16]; post-emergence, 250 g/ha
  Herbicidal efficacy, Digitaria sanguinalis: 3
[16]; post-emergence, 500 g/ha
  Herbicidal efficacy, Digitaria sanguinalis: 4
[16]; post-emergence, 1,000 g/ha
  Herbicidal efficacy, Digitaria sanguinalis: 7
[17]; post-emergence, 125 g/ha
  Herbicidal efficacy, Poa annua: 0
[17]; post-emergence, 250 g/ha
  Herbicidal efficacy, Poa annua: 2
[17]; post-emergence, 500 g/ha
  Herbicidal efficacy, Poa annua: 3
[17]; post-emergence, 1,000 g/ha
  Herbicidal efficacy, Poa annua: 4
[18]; post-emergence, 125 g/ha
  Herbicidal efficacy, Alopecurus myosuroides: 0
[18]; post-emergence, 250 g/ha
  Herbicidal efficacy, Alopecurus myosuroides: 0
[18]; post-emergence, 500 g/ha
  Herbicidal efficacy, Alopecurus myosuroides: 3
[18]; post-emergence, 1,000 g/ha
  Herbicidal efficacy, Alopecurus myosuroides: 5
